Literature values in US20130331260A1, “Odour-Control Superabsorbent” (BASF SE, priority 2012, published 2013).

Tests used:
[1] = tested on: seed germination in urea-based fertiliser

NP(N)(=O)NC(=O)c1ccc(F)cc1 [fluorofamide, N-[Diaminophosphinyl]-4-fluorobenzamide]
antibacterial properties (Helicobacter sp.): no measurable antibacterial properties | effect on seed germination compared with non-fluorinated analogue [1]: worked better than its non-fluorinated analogue in most cases
